What all share (format): cell-based
The target in test [1] is human EGFR exon 20 insertion ASV (V769_D770insASV) (Homo sapiens (Human), UniProt P00533, INS769ASV). The test is described as follows: Ba/F3-EGFR-Exon20-ASV cell anti-proliferative assay (CellTiter 96 MTS, 72 h).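 Also: Ba/F3 cells bearing the EGFR exon 20 ASV insertion, a line able to proliferate without IL-3.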 Particulars: Ba/F3-EGFR-Exon20-ASV cells.
Procedure: Ba/F3 cells expressing EGFR exon 20 insertions (named Ba/F3-EGFR-Exon20-NPG or Ba/F3-EGFR-Exon20-ASV) can proliferate in the absence of IL-3. The anti-proliferative activity of compounds were determined as follows: BaF3-EGFR-Exon20 cells (NPG or ASV) seeded in 96 well plates (2500 cells/well) were treated with test compound (dissolved in DMSO) at a series of concentrations (4-fold dilution, top concentration: 10,000 nM). The plates were incubated for 72 h in a 37° C. incubator with 5% CO2, and the number of viable cells in each well were measured indirectly by CellTiter 96® Aqueous One Solution Cell Proliferation Assay (Promega) This assay is a colorimetric method for determining the number of viable cells through measurement of their metabolic activity by detection of enzymatic conversion of tetrazolium salts into blue formazan derivatives. Reagent (20 μL) was added into each well, and the plates were returned to the incubator for 2 h. The absorbance in each well was then measured at 490 nm using an Envision plate reader (Perkin Elmer).
Test [2] deals with human EGFR exon 20 insertion NPG (H773_V774insNPG) (Homo sapiens, UniProt P00533, INS773NPG, cells depend on it). Put plainly: Ba/F3-EGFR-Exon20-NPG cell anti-proliferative assay (CellTiter 96 MTS, 72 h). The note with it: read-out: EGFR exon 20 NPG insertion IC50.
Test [3] concerns the target human EGFR E746-A750 deletion and T790M Mutation (DT) (Homo sapiens (Human), UniProt P00533, DEL746-750/T790M). Put plainly: Ba/F3-EGFR-Del/T790M cell anti-proliferative assay (CellTiter 96 MTS, 72 h). The note with it: Ba/F3-EGFR-Del/T790M cells; for IC50: read-out: EGFR exon 19 deletion and T790M mutation IC50.
In test [4] the target is human EGFR L858R and T790M double mutation (LT) (Homo sapiens (Human), UniProt P00533, L858R/T790M). Put plainly: Ba/F3-EGFR L858R/T790M cell anti-proliferative assay (CellTiter 96 MTS, 72 h).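 As to all read-outs here: Ba/F3 cells carrying the EGFR L858R/T790M double mutant are able to grow without IL-3.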 The note with it: Ba/F3-EGFR L858R/T790M cells; for IC50: read-out: EGFR exon 21 L858R and T790M mutation IC50.
Procedure: An expression vector, pLVX-IRES puro (Clontech) coding for human EGFR L858R and T790M double mutation, was transfected into HEK293 cells by the Trans-Lentiviral ORF Packaging System (Thermo Scientific), to produce virus encoding EGFR L858R and T790M double mutations. […] Ba/F3 cells expressing EGFR L858R and T790M double mutation (named Ba/F3-EGFR L858R/T790M) can proliferate in the absence of IL-3. The anti-proliferative activity of compounds was determined as follows: BaF3-EGFR L858R/T790M cells seeded in 96 well plates (2500 cells/well) were treated with test compound (dissolved in DMSO) at a series of concentrations (4-fold dilution, top concentration: 10,000 nM). The plates were incubated for 72 h in a 37° C. incubator with 5% CO2, and the number of viable cells in each well were measured indirectly by CellTiter 96® Aqueous One Solution Cell Proliferation Assay (Promega; this assay is a colorimetric method for determining the number of viable cells through measurement of their metabolic activity by detection of enzymatic conversion of tetrazolium salts into blue formazan derivatives). Reagent (20 μL) was added into each well, and the plates were returned to the incubator for 2 h. The absorbance in each well was then measured at 490 nm using an Envision plate reader (Perkin Elmer).
For test [5], the target named is Her2 exon 20 YVMA insertion (A775_G776ins YVMA) (Homo sapiens (Human), UniProt P04626, INS775YVMA). Put plainly: Ba/F3-Her2 Exon20 YVMA cell anti-proliferative assay (CellTiter 96 MTS, 72 h). The note with it: Ba/F3-Her2 Exon20 YVMA cells. The source says: Ba/F3 cells expressing Her2 Exon20 YVMA insertions (named Ba/F3-Her2 Exon20 YVMA) can proliferate in the absence of IL-3.

The values that follow come from patent US10227342B2 (ARIAD PHARMACEUTICALS, INC., priority 2014, dated 2019).

A value given as a limit tells only on which side of the number the result lay.

By IC50 is commonly meant the midpoint of a concentration-inhibition curve.

Sequence of human EGFR E746-A750 deletion and T790M Mutation (DT) (P00533 other isoform, or with tags, fused parts or gaps T790M/del E746-A750): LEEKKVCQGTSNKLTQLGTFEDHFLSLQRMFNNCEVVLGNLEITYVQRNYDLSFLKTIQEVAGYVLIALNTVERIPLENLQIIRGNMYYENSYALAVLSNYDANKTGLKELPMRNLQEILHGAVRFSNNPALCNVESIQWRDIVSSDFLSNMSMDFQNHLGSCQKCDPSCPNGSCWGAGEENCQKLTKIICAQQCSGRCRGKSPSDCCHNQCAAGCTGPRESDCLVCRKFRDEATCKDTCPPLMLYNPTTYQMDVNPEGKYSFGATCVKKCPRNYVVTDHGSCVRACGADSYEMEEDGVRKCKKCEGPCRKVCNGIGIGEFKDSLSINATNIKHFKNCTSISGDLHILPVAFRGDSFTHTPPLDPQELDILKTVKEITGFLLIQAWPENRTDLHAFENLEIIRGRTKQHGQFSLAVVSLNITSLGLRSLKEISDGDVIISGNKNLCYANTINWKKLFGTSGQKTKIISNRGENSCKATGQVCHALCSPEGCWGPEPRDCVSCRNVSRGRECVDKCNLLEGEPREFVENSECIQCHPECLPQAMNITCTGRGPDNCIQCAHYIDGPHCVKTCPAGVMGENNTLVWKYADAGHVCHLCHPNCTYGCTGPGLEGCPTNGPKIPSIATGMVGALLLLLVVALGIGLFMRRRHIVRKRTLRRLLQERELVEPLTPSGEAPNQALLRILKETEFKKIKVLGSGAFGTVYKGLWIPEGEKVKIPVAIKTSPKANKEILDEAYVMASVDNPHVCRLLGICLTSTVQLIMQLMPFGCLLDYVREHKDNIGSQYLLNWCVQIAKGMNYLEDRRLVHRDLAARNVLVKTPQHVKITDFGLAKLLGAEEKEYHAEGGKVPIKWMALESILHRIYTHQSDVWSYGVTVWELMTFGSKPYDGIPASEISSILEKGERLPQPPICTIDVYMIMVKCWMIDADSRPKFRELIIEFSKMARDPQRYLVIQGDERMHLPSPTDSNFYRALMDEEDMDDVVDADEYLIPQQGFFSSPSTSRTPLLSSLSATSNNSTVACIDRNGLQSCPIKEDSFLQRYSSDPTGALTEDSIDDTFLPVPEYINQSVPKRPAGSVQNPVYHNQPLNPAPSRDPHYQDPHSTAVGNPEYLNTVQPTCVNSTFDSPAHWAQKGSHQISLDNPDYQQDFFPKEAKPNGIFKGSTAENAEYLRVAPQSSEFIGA
Sequence of human EGFR exon 20 insertion ASV (V769_D770insASV) (P00533 other isoform, or with tags, fused parts or gaps ins ASV behind 769): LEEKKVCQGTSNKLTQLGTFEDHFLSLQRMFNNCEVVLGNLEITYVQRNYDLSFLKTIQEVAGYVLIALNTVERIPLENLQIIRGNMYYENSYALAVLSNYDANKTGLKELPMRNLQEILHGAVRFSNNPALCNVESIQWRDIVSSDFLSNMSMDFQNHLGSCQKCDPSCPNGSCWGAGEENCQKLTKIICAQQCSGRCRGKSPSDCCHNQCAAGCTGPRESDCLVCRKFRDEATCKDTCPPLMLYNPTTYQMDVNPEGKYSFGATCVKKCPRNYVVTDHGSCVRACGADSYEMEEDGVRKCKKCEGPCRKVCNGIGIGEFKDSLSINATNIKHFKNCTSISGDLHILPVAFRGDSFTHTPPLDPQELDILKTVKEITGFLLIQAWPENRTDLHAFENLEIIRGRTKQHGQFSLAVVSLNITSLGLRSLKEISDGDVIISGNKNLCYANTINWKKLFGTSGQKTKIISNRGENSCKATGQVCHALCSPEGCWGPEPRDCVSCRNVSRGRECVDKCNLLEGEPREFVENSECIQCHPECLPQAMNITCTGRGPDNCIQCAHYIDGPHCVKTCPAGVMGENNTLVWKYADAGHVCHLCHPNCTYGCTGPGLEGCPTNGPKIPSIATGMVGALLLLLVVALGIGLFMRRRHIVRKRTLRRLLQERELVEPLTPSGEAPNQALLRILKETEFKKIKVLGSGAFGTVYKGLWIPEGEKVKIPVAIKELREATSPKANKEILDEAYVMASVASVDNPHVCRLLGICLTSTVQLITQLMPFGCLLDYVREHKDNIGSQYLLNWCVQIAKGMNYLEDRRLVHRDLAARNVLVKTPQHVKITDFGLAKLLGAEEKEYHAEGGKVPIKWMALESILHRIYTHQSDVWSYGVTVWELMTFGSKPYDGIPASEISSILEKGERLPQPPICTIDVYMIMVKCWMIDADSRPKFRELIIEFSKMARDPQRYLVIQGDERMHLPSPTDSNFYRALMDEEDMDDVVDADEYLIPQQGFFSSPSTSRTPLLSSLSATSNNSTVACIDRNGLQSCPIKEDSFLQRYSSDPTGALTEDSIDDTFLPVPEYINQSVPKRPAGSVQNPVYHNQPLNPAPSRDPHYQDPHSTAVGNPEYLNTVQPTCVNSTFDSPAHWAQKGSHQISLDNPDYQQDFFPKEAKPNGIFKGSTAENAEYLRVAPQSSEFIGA
Sequence of human EGFR exon 20 insertion NPG (H773_V774insNPG) (P00533 with tags, fused parts or gaps INS773NPG limits assumed): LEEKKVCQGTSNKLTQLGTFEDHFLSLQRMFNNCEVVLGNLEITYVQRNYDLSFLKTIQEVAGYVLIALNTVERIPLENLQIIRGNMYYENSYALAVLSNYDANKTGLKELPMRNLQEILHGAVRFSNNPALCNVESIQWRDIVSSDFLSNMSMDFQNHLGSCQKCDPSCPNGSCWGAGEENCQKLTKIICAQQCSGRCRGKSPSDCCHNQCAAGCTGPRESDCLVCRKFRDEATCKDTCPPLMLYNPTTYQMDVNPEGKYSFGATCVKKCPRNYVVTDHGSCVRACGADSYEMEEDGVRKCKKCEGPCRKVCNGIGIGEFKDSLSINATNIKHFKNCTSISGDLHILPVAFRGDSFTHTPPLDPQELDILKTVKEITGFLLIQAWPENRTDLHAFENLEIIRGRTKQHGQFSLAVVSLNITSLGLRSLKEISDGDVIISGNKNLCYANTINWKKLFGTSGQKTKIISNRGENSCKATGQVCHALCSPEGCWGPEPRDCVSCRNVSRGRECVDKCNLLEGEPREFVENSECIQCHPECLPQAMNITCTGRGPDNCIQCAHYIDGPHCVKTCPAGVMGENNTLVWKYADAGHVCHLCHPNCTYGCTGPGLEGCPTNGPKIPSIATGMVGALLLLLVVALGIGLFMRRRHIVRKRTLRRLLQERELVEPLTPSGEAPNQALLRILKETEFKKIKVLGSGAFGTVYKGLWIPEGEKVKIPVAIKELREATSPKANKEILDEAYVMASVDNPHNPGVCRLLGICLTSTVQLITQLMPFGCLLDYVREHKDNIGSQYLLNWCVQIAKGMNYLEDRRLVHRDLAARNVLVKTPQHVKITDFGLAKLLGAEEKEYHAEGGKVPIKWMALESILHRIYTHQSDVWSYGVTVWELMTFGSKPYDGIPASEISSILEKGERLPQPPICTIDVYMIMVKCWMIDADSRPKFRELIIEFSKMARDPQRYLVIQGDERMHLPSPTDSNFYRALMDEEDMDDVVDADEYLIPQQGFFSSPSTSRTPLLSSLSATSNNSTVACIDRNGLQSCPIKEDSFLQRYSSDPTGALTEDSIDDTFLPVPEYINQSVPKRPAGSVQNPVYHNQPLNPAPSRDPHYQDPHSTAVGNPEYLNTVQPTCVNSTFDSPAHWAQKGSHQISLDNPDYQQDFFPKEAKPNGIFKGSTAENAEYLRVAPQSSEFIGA
Sequence of human EGFR L858R and T790M double mutation (LT) (P00533 25-1210 T790M/L858R): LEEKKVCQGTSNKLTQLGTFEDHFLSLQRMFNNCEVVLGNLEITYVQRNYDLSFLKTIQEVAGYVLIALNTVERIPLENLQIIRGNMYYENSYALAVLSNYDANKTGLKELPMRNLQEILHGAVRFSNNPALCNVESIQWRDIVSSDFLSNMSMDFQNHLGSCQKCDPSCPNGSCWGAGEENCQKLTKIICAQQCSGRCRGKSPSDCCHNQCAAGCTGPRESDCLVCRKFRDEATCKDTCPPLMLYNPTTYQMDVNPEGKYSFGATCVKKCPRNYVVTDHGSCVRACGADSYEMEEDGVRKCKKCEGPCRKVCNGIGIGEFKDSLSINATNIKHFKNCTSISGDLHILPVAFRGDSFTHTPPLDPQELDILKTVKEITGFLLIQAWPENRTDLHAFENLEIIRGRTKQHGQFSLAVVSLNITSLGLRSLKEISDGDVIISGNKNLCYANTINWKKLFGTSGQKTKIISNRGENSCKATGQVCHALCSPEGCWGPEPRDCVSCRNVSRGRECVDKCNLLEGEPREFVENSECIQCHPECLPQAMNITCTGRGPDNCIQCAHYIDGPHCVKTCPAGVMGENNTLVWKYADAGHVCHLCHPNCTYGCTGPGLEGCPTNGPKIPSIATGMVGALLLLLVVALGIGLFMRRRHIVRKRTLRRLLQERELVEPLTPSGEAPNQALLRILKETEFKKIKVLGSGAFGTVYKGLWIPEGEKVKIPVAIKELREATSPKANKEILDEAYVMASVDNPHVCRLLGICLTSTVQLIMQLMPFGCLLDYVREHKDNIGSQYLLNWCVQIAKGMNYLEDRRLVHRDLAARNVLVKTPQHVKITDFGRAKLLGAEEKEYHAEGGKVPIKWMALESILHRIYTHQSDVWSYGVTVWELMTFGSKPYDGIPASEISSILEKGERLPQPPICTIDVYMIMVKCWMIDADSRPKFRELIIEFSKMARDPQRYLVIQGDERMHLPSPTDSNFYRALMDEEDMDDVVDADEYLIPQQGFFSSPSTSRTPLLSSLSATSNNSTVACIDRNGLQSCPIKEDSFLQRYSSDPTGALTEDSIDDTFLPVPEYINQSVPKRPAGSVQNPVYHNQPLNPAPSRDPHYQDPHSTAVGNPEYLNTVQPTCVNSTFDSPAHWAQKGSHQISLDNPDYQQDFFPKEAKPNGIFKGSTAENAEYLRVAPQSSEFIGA

In the case of `C=CC(=O)Nc1cc(Nc2ncc(C(=O)OC(C)C)c(-c3cn(CC)c4ccccc34)n2)c(OC)cc1N(C)CCN(C)C` [Example 77, isopropyl 2-((5-acrylamido-4-((2-(dimethylamino)ethyl)(methyl)amino)-2-methoxyphenyl)amino)-4-(1-ethyl-1H-indol-3-yl)pyrimidine-5-carboxylate], the IC50 in test [1], in test [2], in test [3], in test [4] and in test [5] was less than 100 nM in each case.
Take `C=CC(=O)Nc1cc(Nc2nccc(-c3c(-c4ccc(OCc5ccccn5)c(Cl)c4)n(C)c4ccccc34)n2)c(OC)cc1N(C)CCN(C)C` [Example 5, N-(5-((4-(2-(3-chloro-4-(pyridin-2-ylmethoxy)phenyl)-1-methyl-1H-indol-3-yl)pyrimidin-2-yl)amino)-2-((2-(dimethylamino)ethyl)(methyl)amino)-4-methoxyphenyl)acrylamide]: the concentration for half-maximal inhibition (IC50) in test [1], in test [2] and in test [5] was 100 to 500 nM each time. Moreover, the “EGFR exon 19 deletion and T790M mutation IC50” value in test [3] was “B (Group B compounds have an IC50 value for the indicated mutant between about 100 to about 500 nM)”. In addition, the “EGFR exon 21 L858R and T790M mutation IC50” value in test [4] is “B (Group B compounds have an IC50 value for the indicated mutant between about 100 to about 500 nM)”.
As for `C=CC(=O)Nc1cc(Nc2ncc(C(=O)OCC)c(-c3cn(C)c4ccccc34)n2)c(OC)cc1N(C)CCN(C)C` [Example 9, ethyl 2-((5-acrylamido-4-((2-(dimethylamino)ethyl)(methyl)amino)-2-methoxyphenyl)amino)-4-(1-methyl-1H-indol-3-yl)pyrimidine-5-carboxylate], the half-inhibitory concentration (IC50) in test [1], in test [2], in test [3], in test [4] and in test [5] was less than 100 nM throughout.
As for `C=CC(=O)Nc1cc(Nc2ncc(C(=O)OC(C)C)c(-c3cn(C)c4ccccc34)n2)c(OC)cc1N(C)C[C@@H]1CCCN1C` [Example 35, (S)-isopropyl 2-((5-acrylamido-2-methoxy-4-(methyl((1-methylpyrrolidin-2-yl)methyl)amino)phenyl)amino)-4-(1-methyl-1H-indol-3-yl)pyrimidine-5-carboxylate], the half-inhibitory concentration (IC50) in test [1], in test [2], in test [3], in test [4] and in test [5] was less than 100 nM throughout.
As to `C=CC(=O)Nc1cc(Nc2ncc(C(=O)OC(C)C)c(-c3cn(C)c4ccccc34)n2)c(OC)cc1N(C)C[C@H]1CCCN1C` [Example 36, (R)-isopropyl 2-((5-acrylamido-2-methoxy-4-(methyl((1-methylpyrrolidin-2-yl)methyl)amino)phenyl)amino)-4-(1-methyl-1H-indol-3-yl)pyrimidine-5-carboxylate], the 50% inhibitory concentration (IC50) in test [1], in test [2], in test [3], in test [4] and in test [5] was less than 100 nM throughout.
With `C=CC(=O)Nc1cc(Nc2ncc(C(=O)OC(C)C)c(-c3cn(C)c4ccccc34)n2)c(OC)cc1OCCN(C)C` [Example 67, isopropyl 2-((5-acrylamido-4-(2-(dimethylamino)ethoxy)-2-methoxyphenyl)amino)-4-(1-methyl-1H-indol-3-yl)pyrimidine-5-carboxylate], the IC50 in test [1], in test [2], in test [3], in test [4] and in test [5] was less than 100 nM throughout.
As to `C=CC(=O)Nc1cc(Nc2ncc(C(=O)OC(C)C)c(-c3cn(C)c4ccccc34)n2)c(OC)cc1N(C)C[C@@H]1CCCN1` [Example 73], the concentration for half-maximal inhibition (IC50) in test [1], in test [2], in test [3], in test [4] and in test [5] was less than 100 nM in each case.
Consider `C=CC(=O)Nc1cc(Nc2ncc(C(=O)OC(C)C)c(-c3cn(C)c4ncccc34)n2)c(OC)cc1N(C)CCN(C)C` [Example 34, isopropyl 2-((5-acrylamido-4-((2-(dimethylamino)ethyl)(methyl)amino)-2-methoxyphenyl)amino)-4-(1-methyl-1H-pyrrolo[2,3-b]pyridin-3-yl)pyrimidine-5-carboxylate], for which the IC50 in test [1], in test [2], in test [3], in test [4] and in test [5] was less than 100 nM each time.
For the molecule `C=CC(=O)Nc1cc(Nc2nccc(-c3cn(C)c4cc(C(=O)OC(C)C)ccc34)n2)c(OC)cc1N(C)CCN(C)C` [Example 84, isopropyl 3-(2-((5-acrylamido-4-((2-(dimethylamino)ethyl)(methyl)amino)-2-methoxyphenyl)amino)pyrimidin-4-yl)-1-methyl-1H-indole-6-carboxylate], the IC50 was 500 to 1000 nM in test [1], less than 100 nM in test [3], less than 100 nM in test [4] and 500 to 1000 nM in test [5].
For `C=CC(=O)Nc1cc(Nc2nccc(-c3c(-c4ccccc4)n(C)c4ccccc34)n2)c(OC)cc1N(C)CCN(C)C` [Example 7, N-(2-((2-(dimethylamino)ethyl)(methyl)amino)-4-methoxy-5-((4-(1-methyl-2-phenyl-1H-indol-3-yl)pyrimidin-2-yl)amino)phenyl)acrylamide], the 50% inhibitory concentration (IC50) in test [1] was 100 to 500 nM; in test [2] it was less than 100 nM; in test [3], less than 100 nM; in test [4], less than 100 nM; in test [5], 100 to 500 nM.
Turning to `C=CC(=O)Nc1cc(Nc2ncc(CC)c(-c3cn(CC(=O)NC)c4ccccc34)n2)c(OC)cc1N(C)CCN(C)C` [Example 72, N-(2-((2-(dimethylamino)ethyl)(methyl)amino)-5-((5-ethyl-4-(1-(2-(methylamino)-2-oxoethyl)-1H-indol-3-yl)pyrimidin-2-yl)amino)-4-methoxyphenyl)acrylamide], the IC50 was less than 100 nM in test [1], less than 100 nM in test [3], less than 100 nM in test [4] and 100 to 500 nM in test [5].
Turning to `C=CC(=O)Nc1cc(Nc2ncc(C(=O)OC(C)C)c(-c3cn(C)c4ncccc34)n2)c(OC)cc1N(C)CCNC` [Example 74, isopropyl 2-((5-acrylamido-2-methoxy-4-(methyl(2-(methylamino)ethyl)amino)phenyl)amino)-4-(1-methyl-1H-pyrrolo[2,3-b]pyridin-3-yl)pyrimidine-5-carboxylate], the half-inhibitory concentration (IC50) in test [1] was less than 100 nM; in test [2] it was less than 100 nM; in test [3] it was less than 100 nM; in test [5], 100 to 500 nM. Further, the “EGFR exon 21 L858R and T790M mutation IC50” value in test [4] is recorded as “B (Group B compounds have an IC50 value for the indicated mutant between about 100 to about 500 nM)”.
Regarding `C=CC(=O)Nc1cc(Nc2ncc(C(=O)OC(C)C)c(-c3c[nH]c4ncccc34)n2)c(OC)cc1N(C)CCN(C)C` [Example 66, isopropyl 2-((5-acrylamido-4-((2-(dimethylamino)ethyl)(methyl)amino)-2-methoxyphenyl)amino)-4-(1H-pyrrolo[2,3-b]pyridin-3-yl)pyrimidine-5-carboxylate], the IC50 in test [1], in test [2], in test [3], in test [4] and in test [5] was less than 100 nM throughout.
As to `C=CC(=O)Nc1cc(Nc2ncc(C(=O)OC(C)C)c(-c3c[nH]c4ccccc34)n2)c(OC)cc1N(C)CCN(C)C` [Example 30, isopropyl 2-((5-acrylamido-4-((2-(dimethylamino)ethyl)(methyl)amino)-2-methoxyphenyl)amino)-4-(1H-indol-3-yl)pyrimidine-5-carboxylate], the IC50 in test [1], in test [2], in test [3], in test [4] and in test [5] was less than 100 nM each time.
For `C=CC(=O)Nc1cc(Nc2ncc(CC)c(-c3cn(CC(N)=O)c4ccccc34)n2)c(OC)cc1N(C)CCN(C)C` [Example 71, N-(5-((4-(1-(2-amino-2-oxoethyl)-1H-indol-3-yl)-5-ethylpyrimidin-2-yl)amino)-2-((2-(dimethylamino)ethyl)(methyl)amino)-4-methoxyphenyl)acrylamide], the concentration for half-maximal inhibition (IC50) in test [1] was less than 100 nM; in test [3] it was less than 100 nM; in test [4], less than 100 nM; in test [5], 100 to 500 nM.
For the molecule `C=CC(=O)Nc1cc(Nc2nccc(-c3cn(C)c4c(C(=O)OC(C)C)cccc34)n2)c(OC)cc1N(C)CCN(C)C` [Example 85, isopropyl 3-(2-((5-acrylamido-4-((2-(dimethylamino)ethyl)(methyl)amino)-2-methoxyphenyl)amino)pyrimidin-4-yl)-1-methyl-1H-indole-7-carboxylate], the half-maximal inhibitory concentration (IC50) in test [1] was 100 to 500 nM; in test [3], less than 100 nM; in test [4], less than 100 nM; in test [5] it was 100 to 500 nM.
For the molecule `C=CC(=O)Nc1cc(Nc2nccc(-c3cn(C)c4cc(-c5cnn(C)c5)ccc34)n2)c(OC)cc1N(C)CCN(C)C` [Example 95, N-(2-((2-(dimethylamino)ethyl)(methyl)amino)-4-methoxy-5-((4-(1-methyl-6-(1-methyl-1H-pyrazol-4-yl)-1H-indol-3-yl)pyrimidin-2-yl)amino)phenyl)acrylamide], the IC50 in test [1] is less than 100 nM; in test [3] it was less than 100 nM; in test [4], less than 100 nM; in test [5], 100 to 500 nM.
